From patent publication US20090239891A1 (priority 2006, published 2009)

Test: Analgesic effect (% MPE) by tail flick method after intravenous injection
Format: in vivo
Conditions: mice

For buprenorphine hydrochloride, the “% MPE” value (0.08 hours after i.v. 2.4 mg/kg) was 0%, the “% MPE” value (0.25 hours after i.v. 2.4 mg/kg) was 53.7% and the “% MPE” value (0.5 hours after i.v. 2.4 mg/kg) was 96.3%. For the same substance, the “% MPE” value (1 hour after i.v. 2.4 mg/kg) was 100%, the “% MPE” value (2 hours after i.v. 2.4 mg/kg) was 77.4% and the “% MPE” value (3 hours after i.v. 2.4 mg/kg) was 93.3%. The “% MPE” value (5 hours after i.v. 2.4 mg/kg) was 100%, the “% MPE” value (7 hours after i.v. 2.4 mg/kg) was 72.7% and the “% MPE” value (9 hours after i.v. 2.4 mg/kg, hydrochloride, 2.4 mg/kg) was 54%. The “% MPE” value (9 hours after i.v. 2.4 mg/kg, listed as buprenorphine, hydrochloride, 2.4 mg/kg) was 54.4%, the “% MPE” value (12 hours after i.v. 2.4 mg/kg, hydrochloride, 2.4 mg/kg) was 0% and the “% MPE” value (12 hours after i.v. 2.4 mg/kg, listed as buprenorphine, hydrochloride, 2.4 mg/kg) was 8.1%. For the same substance, the “% MPE” value (18 hours after i.v. 2.4 mg/kg) was 0%, the “% MPE” value (24 hours after i.v. 2.4 mg/kg) was 0% and the “onset of analgesic effect” value (after i.v. 2.4 mg/kg) was 15 min. For the same substance, the “duration of analgesic effect” value (after i.v. bolus 2.4 mg/kg) was 9 h and the analgesic effect observed (between 12 and 24 hours after i.v. 2.4 mg/kg) was “No analgesic effect”.
